Calls of active or inactive are those of the source. The calls are words filed in the database; no cut-off is given here.
What was measured:
[1] = test system: MCF7; experiment: Antitumor activity against human MCF7 cells assessed as reduction in cell viability incubated for 72 hrs by CCK8 assay; type: functional, cell-based; conditions: MCF7, 72 h
[2] = test system: MCF7; experiment: Antitumor activity against human MCF7 cells assessed as decrease in number of viable cells at 0.05 to 0.2 uM incubated for 24 hrs by Hoechst 33342 staining based confocal microscopic analysis; type: functional, cell-based; conditions: dose 0.05-0.2 µM
[3] = test system: MCF7; experiment: Antitumor activity against human MCF7 cells assessed as decrease in nuclear volume at 0.05 to 0.2 uM incubated for 24 hrs by Hoechst 33342 staining based confocal microscopic analysis; type: functional, cell-based; conditions: dose 0.05-0.2 µM
[4] = test system: MCF7; experiment: Antitumor activity against human MCF7 cells assessed as […] at 0.05 to 0.2 uM incubated for 24 hrs by Hoechst 33342 staining based confocal microscopic analysis; type: functional, cell-based; conditions: dose 0.05-0.2 µM
[5] = test system: MCF7; experiment: Inhibition of colony formation in human MCF7 cells assessed as reduction in clone formation rate at 0.05 to 0.2 uM measured after 14 days by giemsa staining based dissection microscopic analysis; type: functional, cell-based; conditions: dose 0.05-0.2 µM, time 14.0 day
[6] = test system: MCF7; experiment: Inhibition of colony formation in human MCF7 cells assessed as reduction in number of colonies measured after 14 days by giemsa staining based dissection microscopic analysis; type: functional, cell-based; conditions: dose 0.05-0.2 µM, time 14.0 day
[7] = test system: MCF7; experiment: Induction of apoptosis in human MCF7 cells assessed as increase in death ratio at 0.05 to 0.2 uM by Annexin V-FITC/PI staining based flow cytometric analysis; type: functional, cell-based; conditions: dose 0.05-0.2 µM
[8] = test system: Mitochondrial membrane; experiment: Induction of mitochondrial membrane potential loss in human MCF7 cells assessed as reduction in JC-1 aggregate formation at 0.05 to 0.2 uM incubated for 48 hrs by JC-1 staining based confocal microscopic analysis; type: cell membranes; conditions: dose 0.05-0.2 µM
[9] = test system: Mitochondrial membrane; experiment: Induction of mitochondrial membrane potential loss in human MCF7 cells assessed as increase in JC-1 monomer level at 0.05 to 0.2 uM incubated for 48 hrs by JC-1 staining based confocal microscopic analysis; type: cell membranes; conditions: dose 0.05-0.2 µM
[10] = test system: MCF7; experiment: Induction of apoptosis in human MCF7 cells assessed as increase in Bax level at 0.05 to 0.2 uM incubated for 48 hrs by Western blot analysis; type: functional, cell-based; conditions: dose 0.05-0.2 µM
[11] = test system: MCF7; experiment: Induction of apoptosis in human MCF7 cells assessed as increase in caspase 3 level at 0.05 to 0.2 uM incubated for 48 hrs by Western blot analysis; type: functional, cell-based; conditions: dose 0.05-0.2 µM
[12] = test system: MCF7; experiment: Induction of ferroptosis in human MCF7 cells assessed as reduction in GPX4 expression at 0.05 to 0.2 uM incubated for 48 hrs by Western blot analysis; type: functional, cell-based; conditions: dose 0.05-0.2 µM
[13] = test system: MCF7; experiment: Induction of apoptosis in human MCF7 cells assessed as viable cells at 0.05 uM by Annexin V-FITC/PI staining based flow cytometric analysis (reference value: 92.01 %); type: functional; conditions: read-out: Activity
[14] = test system: MCF7; experiment: Induction of apoptosis in human MCF7 cells assessed as early apoptotic cells at 0.05 uM by Annexin V-FITC/PI staining based flow cytometric analysis (reference value: 5.75 %); type: functional
[15] = test system: MCF7; experiment: Induction of apoptosis in human MCF7 cells assessed as late apoptotic cells at 0.05 uM by Annexin V-FITC/PI staining based flow cytometric analysis (reference value: 1.97 %); type: functional
[16] = test system: MCF7; experiment: Induction of apoptosis in human MCF7 cells assessed as necrotic cells at 0.05 uM by Annexin V-FITC/PI staining based flow cytometric analysis (reference value: 0.27 %); type: functional
[17] = test system: MCF7; experiment: Induction of apoptosis in human MCF7 cells assessed as viable cells at 0.1 uM by Annexin V-FITC/PI staining based flow cytometric analysis (reference value: 92.01 %); type: functional; conditions: read-out: Activity
[18] = test system: MCF7; experiment: Induction of apoptosis in human MCF7 cells assessed as early apoptotic cells at 0.1 uM by Annexin V-FITC/PI staining based flow cytometric analysis (reference value: 5.75 %); type: functional
[19] = test system: MCF7; experiment: Induction of apoptosis in human MCF7 cells assessed as late apoptotic cells at 0.1 uM by Annexin V-FITC/PI staining based flow cytometric analysis (reference value: 1.97 %); type: functional
[20] = test system: MCF7; experiment: Induction of apoptosis in human MCF7 cells assessed as necrotic cells at 0.1 uM by Annexin V-FITC/PI staining based flow cytometric analysis (reference value: 0.27 %); type: functional
[21] = test system: MCF7; experiment: Induction of apoptosis in human MCF7 cells assessed as viable cells at 0.2 uM by Annexin V-FITC/PI staining based flow cytometric analysis (reference value: 92.01 %); type: functional; conditions: read-out: Activity
[22] = test system: MCF7; experiment: Induction of apoptosis in human MCF7 cells assessed as early apoptotic cells at 0.2 uM by Annexin V-FITC/PI staining based flow cytometric analysis (reference value: 5.75 %); type: functional
[23] = test system: MCF7; experiment: Induction of apoptosis in human MCF7 cells assessed as late apoptotic cells at 0.2 uM by Annexin V-FITC/PI staining based flow cytometric analysis (reference value: 1.97 %); type: functional
[24] = test system: MCF7; experiment: Induction of apoptosis in human MCF7 cells assessed as necrotic cells at 0.2 uM by Annexin V-FITC/PI staining based flow cytometric analysis (reference value: 0.27 %); type: functional

`Nc1ccn([C@@H]2O[C@H](CO)[C@@H](O)C2(F)F)c(=O)n1` [GEMCITABINE] gave an IC50 [1] of 4.33 µM.

With `C[C@H]1[C@@H](O)O[C@@H]2O[C@@]3(C)CC[C@H]4[C@H](C)CC[C@@H]1[C@@]24OO3` [ARTENIMOL] the IC50 [1] was greater than 10 µM.

`C[C@H]1[C@@H](OCCN(CCO[C@H]2O[C@@H]3O[C@@]4(C)CC[C@H]5[C@H](C)CC[C@@H]([C@H]2C)[C@@]35OO4)CCO[C@H]2O[C@@H]3O[C@@]4(C)CC[C@H]5[C@H](C)CC[C@@H]([C@H]2C)[C@@]35OO4)O[C@@H]2O[C@@]3(C)CC[C@H]4[C@H](C)CC[C@@H]1[C@@]24OO3` was tested, and the IC50 [1] was 0.09 µM, the Activity [2] was “Active” and the Activity [3] was “Active”. For the same molecule, the Activity [4] was “Active”, the inhibition [5] was “Active” and the inhibition [6] was “Dose-dependent-effect”. The Activity [7] was “Active”, the Activity [8] was “Active; Partial Loss Of Membrane Potential Observed” and the Activity [9] was “Active; Partial Loss Of Membrane Potential Observed”. For the same molecule, the Activity [10] was “Active”, the Activity [11] was “Active” and the Activity [12] was “Active”. The viability at 0.05 µM [13] was 76.5%, the Activity [14] was 13.23% and the Activity [15] was 9.54%. It also gave an Activity [16] of 0.74%, a viability at 0.1 µM [17] of 74.4% and an Activity [18] of 14.22%. For the same molecule, the Activity [19] was 10.27%, the Activity [20] was 1.14% and the viability at 0.2 µM [21] was 62.5%. It also gave an Activity [22] of 16.86%, an Activity [23] of 20.21% and an Activity [24] of 0.48%.

`C[C@H]1[C@@H](OCCN)O[C@@H]2O[C@@]3(C)CC[C@H]4[C@H](C)CC[C@@H]1[C@@]24OO3` was tested, and the IC50 [1] was greater than 10 µM.

With `C[C@H]1[C@@H](OCCNCCO[C@H]2O[C@@H]3O[C@@]4(C)CC[C@H]5[C@H](C)CC[C@@H]([C@H]2C)[C@@]35OO4)O[C@@H]2O[C@@]3(C)CC[C@H]4[C@H](C)CC[C@@H]1[C@@]24OO3` the IC50 [1] was 3.14 µM.
